Laboratory results published in patent EP0049968A1, “Pharmaceutical compositions” (priority 1980, dated 1982).

How the values were obtained:
Format in all cases: cell-based
[1] = system: highly resistant E.coli strains (producing a plasmid mediated β-lactamase); experiment: MIC of compound (i) alone and in combination with compound (iii), E. coli strains; settings: for MIC µg/ml compound (i) compound (iii) (µg/ml) 5: with compound (iii) 5 µg/ml; for MIC µg/ml compound (i) compound (iii) (µg/ml) 10: with compound (iii) 10 µg/ml; for MIC µg/ml compound (i) compound (iii) (µg/ml) 1: with compound (iii) 1 µg/ml; for MIC µg/ml compound (i) compound (iii) (µg/ml) 2: with compound (iii) 2 µg/ml
[2] = system: Pseudomonas aeruginosa Dalgleish; experiment: MIC of compound (i) alone and in the presence of compound (iv), serial dilution in nutrient agar
Protocol: (§1) Activities of the compound (i) against a number of pathogenic organisms alone, and in the presence of 1.0, 2.5, 5.0 and 10 µg/ml of compound (iv).

[3] = system: Staphylococcus aureus Russell; experiment: as above
Protocol: as §1

Klebsiella aerogenes A = experiment: as above
Protocol: as §1

E. coli = experiment: as above
Protocol: as §1

Proteus mirabilis C889 = experiment: as above
Protocol: as §1

Serratia marcescens US39 = experiment: as above
Protocol: as §1

`CC1(C)S[C@@H]2[C@H](NC(=O)[C@H](NC(=O)Nc3cnc(Nc4ccc(S(N)(=O)=O)cc4)nc3O)c3ccc(O)cc3)C(=O)N2[C@H]1C(=O)O` [compound (i)] was tested, and the “MIC µg/ml compound (i) compound (iii) (µg/ml) 5” value (“MIC µg/ml compound … (µg/ml) 5” for short) ([1]; strain P9) was 0.16 µg/mL, the “MIC µg/ml compound (i) compound (iii) (µg/ml) 10” value (“MIC µg/ml compound … (µg/ml) 10” for short) ([1]; strain P9) was 0.08 µg/mL and the “MIC µg/ml compound (i) compound (iii) (µg/ml) 1” value ([1]; strain P19) was 0.31 µg/mL. For the same compound, the “MIC µg/ml compound (i) compound (iii) (µg/ml) 2” value ([1]; strain P19) was 0.31 µg/mL, the “MIC µg/ml compound … (µg/ml) 5” value ([1]; strain P19) was 0.08 µg/mL and the “MIC µg/ml compound … (µg/ml) 10” value ([1]; strain P19) was 0.02 µg/mL. The “MIC µg/ml compound (i) compound (iii) (µg/ml) 1” value ([1]; strain SA15) was 2.5 µg/mL, the “MIC µg/ml compound (i) compound (iii) (µg/ml) 2” value ([1]; strain SA15) was 1.25 µg/mL and the “MIC µg/ml compound … (µg/ml) 5” value ([1]; strain SA15) was 0.31 µg/mL. For the same compound, the “MIC µg/ml compound … (µg/ml) 10” value ([1]; strain SA15) was 0.08 µg/mL, the “MIC (μg/ml) for compound (i)” value ([2]; inoculum 10^-2, compound (iv) 0 μg/ml (alone)) was 50 µg/mL and the “MIC (μg/ml) for compound (i)” value ([2]; inoculum 10^-2, compound (iv) 1.0 μg/ml) was 2.5 µg/mL. The “MIC (μg/ml) for compound (i)” value ([2]; inoculum 10^-2, compound (iv) 2.5 μg/ml) was 1.0 µg/mL, the “MIC (μg/ml) for compound (i)” value ([2]; inoculum 10^-2, compound (iv) 5.0 μg/ml) was 1.0 µg/mL and the “MIC (μg/ml) for compound (i)” value ([2]; inoculum 10^-2, compound (iv) 10 μg/ml) was 2.5 µg/mL. For the same compound, the “MIC (μg/ml) for compound (i)” value ([2]; inoculum Undiluted, compound (iv) 0 μg/ml (alone)) was >100 µg/mL, the “MIC (μg/ml) for compound (i)” value ([2]; inoculum Undiluted, compound (iv) 1.0 μg/ml) was 10 µg/mL and the “MIC (μg/ml) for compound (i)” value ([2]; inoculum Undiluted, compound (iv) 2.5 μg/ml) was 5.0 µg/mL. For the same compound, the “MIC (μg/ml) for compound (i)” value ([2]; inoculum Undiluted, compound (iv) 5.0 μg/ml) was 5.0 µg/mL, the “MIC (μg/ml) for compound (i)” value ([2]; inoculum Undiluted, compound (iv) 10 μg/ml) was 10 µg/mL and the “MIC (μg/ml) for compound (i)” value ([3]; compound (iv) 0 μg/ml (alone)) was 50 µg/mL. The “MIC (μg/ml) for compound (i)” value ([3]; compound (iv) 1.0 μg/ml) was 2.5 µg/mL, the “MIC (μg/ml) for compound (i)” value ([3]; compound (iv) 2.5 μg/ml) was 2.5 µg/mL and the “MIC (μg/ml) for compound (i)” value ([3]; compound (iv) 5.0 μg/ml) was 1.0 µg/mL. The “MIC (μg/ml) for compound (i)” value ([3]; compound (iv) 10 μg/ml) was 1.0 µg/mL, the “MIC (μg/ml) for compound (i)” value (Klebsiella aerogenes A; compound (iv) 0 μg/ml (alone)) was 5.0 µg/mL and the “MIC (μg/ml) for compound (i)” value (Klebsiella aerogenes A; compound (iv) 1.0 μg/ml) was 0.05 µg/mL. For the same compound, the “MIC (μg/ml) for compound (i)” value (Klebsiella aerogenes A; compound (iv) 2.5 μg/ml) was 0.05 µg/mL, the “MIC (μg/ml) for compound (i)” value (Klebsiella aerogenes A; compound (iv) 5.0 μg/ml) was 0.05 µg/mL and the “MIC (μg/ml) for compound (i)” value (Klebsiella aerogenes A; compound (iv) 10 μg/ml) was 0.05 µg/mL. The “MIC (μg/ml) for compound (i)” value (E. coli; E. coli JT4 R+, compound (iv) 0 μg/ml (alone)) was >100 µg/mL, the “MIC (μg/ml) for compound (i)” value (E. coli; E. coli JT4 R+, compound (iv) 1.0 μg/ml) was 10 µg/mL and the “MIC (μg/ml) for compound (i)” value (E. coli; E. coli JT4 R+, compound (iv) 2.5 μg/ml) was 2.5 µg/mL. The “MIC (μg/ml) for compound (i)” value (E. coli; E. coli JT4 R+, compound (iv) 5.0 μg/ml) was 1.0 µg/mL, the “MIC (μg/ml) for compound (i)” value (E. coli; E. coli JT4 R+, compound (iv) 10 μg/ml) was 0.5 µg/mL and the “MIC (μg/ml) for compound (i)” value (E. coli; E. coli JT39 R+, compound (iv) 0 μg/ml (alone)) was >100 µg/mL. The “MIC (μg/ml) for compound (i)” value (E. coli; E. coli JT39 R+, compound (iv) 1.0 μg/ml) was 1.0 µg/mL, the “MIC (μg/ml) for compound (i)” value (E. coli; E. coli JT39 R+, compound (iv) 2.5 μg/ml) was 0.5 µg/mL and the “MIC (μg/ml) for compound (i)” value (E. coli; E. coli JT39 R+, compound (iv) 5.0 μg/ml) was 0.5 µg/mL. The “MIC (μg/ml) for compound (i)” value (E. coli; E. coli JT39 R+, compound (iv) 10 μg/ml) was 0.1 µg/mL, the “MIC (μg/ml) for compound (i)” value (Proteus mirabilis C889; compound (iv) 0 μg/ml (alone)) was >100 µg/mL and the “MIC (μg/ml) for compound (i)” value (Proteus mirabilis C889; compound (iv) 1.0 μg/ml) was 0.5 µg/mL. For the same compound, the “MIC (μg/ml) for compound (i)” value (Proteus mirabilis C889; compound (iv) 2.5 μg/ml) was 0.2 µg/mL, the “MIC (μg/ml) for compound (i)” value (Proteus mirabilis C889; compound (iv) 5.0 μg/ml) was 0.1 µg/mL and the “MIC (μg/ml) for compound (i)” value (Proteus mirabilis C889; compound (iv) 10 μg/ml) was 0.1 µg/mL. For the same compound, the “MIC (μg/ml) for compound (i)” value (Serratia marcescens US39; compound (iv) 0 μg/ml (alone)) was 50 µg/mL, the “MIC (μg/ml) for compound (i)” value (Serratia marcescens US39; compound (iv) 1.0 μg/ml) was 0.5 µg/mL and the “MIC (μg/ml) for compound (i)” value (Serratia marcescens US39; compound (iv) 2.5 μg/ml) was 1.0 µg/mL. For the same compound, the “MIC (μg/ml) for compound (i)” value (Serratia marcescens US39; compound (iv) 5.0 μg/ml) was 2.5 µg/mL and the “MIC (μg/ml) for compound (i)” value (Serratia marcescens US39; compound (iv) 10 μg/ml) was 5.0 µg/mL.
